The values that follow are results of earlier work, collected in US20020028792A1, “Combinations of bisphosphonates, estrogens and estrogenic agents” (American Home Products Corporation, priority 2000, published 2002).

For this data set the following is noted: Paget's disease of the bone; 30-mg tablets.

`O=P(O)(O)C(O)(Cc1cccnc1)P(=O)(O)O` [Risedronate]: the “effectiveness in clinical trials” value is listed as “effective”.
